# Legend:
# [1] = tested on: HDAC (nuclear fraction of Hela cells); assay: Assay of enzyme inhibition of HDAC (BIOMOL Kit); format: biochemical; conditions: substrate 200 μM, 15 min at RT, fluorescence
# Protocol: The in-vitro activity of HDAC inhibitors was assayed using a BIOMOL Kit, according to the instructions from the manufacturer (Biomolecular Research Laborator). 15 μl of 30× diluted nuclear fraction of Hela cells, was diluted to 50 μl with the assay buffer containing the HDAC inhibitor and the substrate (lysine with acetylated amino group on the side chain) at a concentration of 200 μM. The samples were incubated for 15 min at RT and then exposed to a developer (10 min at RT). In this last step a fluorophore was produced, whose fluorescence was measured using an excitation wavelength of 355 nm and an emission at 460 nm. The IC50 was calculated using GraphPad Software.
# A549 cells = assay: Cell growth, CellTiter-Glo Luminescent Cell Viability Assay, A549; format: cell-based; conditions: Homo sapiens, 72 h incubation, read-out: A549 (antiproliferative assay IC50)
# Description: (§1) CellTiter-Glo® Luminescent Cell Viability Assay (Promega) is a homogeneous method of determining the number of viable cells in culture based on quantitation of the present ATP, which indicates the presence of metabolically active cells. The homogeneous assay procedure involves addition of a single reagent (CellTiter-Glo® Reagent) directly to the cells, which leads to cell lysis and generation of a luminescent signal proportional to the amount of the ATP and the number of cells present in culture. The assay relies on the properties of a proprietary thermostable luciferase (Ultra-Glo® recombinant luciferase), which generates a luminescent signal.
# (§2) K562, A549, and HCT-116 cells, in exponential growth, were incubated for 72 h with different concentrations of the inhibitors. After 72 h, a volume of CellTiter-Glo® Reagent equal to the volume of cell culture medium was added. The content was mixed for 2 min to induce cell lysis. The luminescence was recorded after further 10 min at RT in order to obtain a stable luminescent signal.
# (§3) The IC50 was calculated using GraphPad Software.
# HCT-116 cells = assay: Cell growth, CellTiter-Glo Luminescent Cell Viability Assay, HCT-116; format: cell-based; conditions: Homo sapiens, 72 h incubation, read-out: HCT116 (antiproliferative assay IC50)
# Description: as §1, §2, §3
# K562 cells = assay: Cell growth, CellTiter-Glo Luminescent Cell Viability Assay, K562; format: cell-based; conditions: Homo sapiens, 72 h incubation, read-out: K562 (antiproliferative assay IC50)
# Description: as §1, §2, §3
Compound,IC50 [1],further results
"O=C(/C=C/c1ccc2c(c1)C(=O)CC1(CCN(Cc3ccccc3)C1)O2)NO (single isomer, unassigned; (-)) [Example 3, (−)-(E)-3-[1′-Benzyl-4-oxo-spiro(chromane-2,3′-pyrrolidine)-6-yl]-N-hydroxy-acrylamide]",≤ 100 nM,–
"Cn1cc(CN2CC3(CC(=O)c4cc(/C=C/C(=O)NO)ccc4O3)C2)c2ccccc21 [Example 44, (E)-3-[1′-(1-Methyl-1H-indol-3-ylmethyl)-4-oxo-spiro(chromane-2,3′-azetidine)-6-yl]-N-hydroxy-acrylamide]",≤ 100 nM,–
"CO/N=C1/CC2(CCCN(Cc3ccc(F)cc3)C2)Oc2ccc(/C=C/C(=O)NO)cc21 (centres unmarked) [Example 53, (E)-3-(1′-(4-Fluorobenzyl)-4-(methoxyimino)spiro[chroman-2,3′-piperidine]-6-yl)-N-hydroxyacrylamide]",≥ 1000 nM,IC50 (A549 cells): ≥ 3000 nM; IC50 (HCT-116 cells): 1000 to 3000 nM; IC50 (K562 cells): 1000 to 3000 nM
"O=C(/C=C/c1ccc2c(c1)C(=O)CC1(CCCN(Cc3ccc(F)cc3)C1)O2)NO (racemic) [Example 19, (±)-(E)-3-[1′(4-Fluoro-benzyl)-4-oxo-spiro(chromane-2,3′-piperidine)-6-yl]-N-hydroxy-acrylamide]",≤ 100 nM,–
"O=C(/C=C/c1ccc2c(c1)C(=O)CC1(CCN(Cc3ccccc3)C1)O2)NO (racemic) [Example 2, (±)-(E)-3-[1′-Benzyl-4-oxo-spiro(chromane-2,3′-pyrrolidine)-6-yl]-N-hydroxy-acrylamide]",≤ 100 nM,–
"O=C(/C=C/c1ccc2c(c1)/C(=N\OCc1ccccc1)CC1(CCCN(CCc3ccccc3)C1)O2)NO (centres unmarked) [Example 55, (E)-3-(4-(Benzyloxyimino)-1′-phenethylspiro[chroman-2,3′-piperidine]-6-yl)-N-hydroxyacrylamide]",≥ 1000 nM,IC50 (A549 cells): 1000 to 3000 nM; IC50 (HCT-116 cells): ≤ 1000 nM; IC50 (K562 cells): ≤ 1000 nM
"O=C(/C=C/c1ccc2c(c1)C(=O)CC1(CCCN(Cc3ccccc3)C1)O2)NO (racemic) [Example 13, (±)-(E)-3-[1′Benzyl-4-oxo-spiro(chromane-2,3′-piperidine)-6-yl]-N-hydroxy-acrylamide]",≤ 100 nM,–
"O=C(/C=C/c1ccc2c(c1)C(=NO)CC1(CCCN(C3CCCC3)C1)O2)NO (centres unmarked) [Example 54, (E)-3-(1′-Cyclopentyl-4-(hydroxyimino)spiro[chroman-2,3′-piperidine]-6-yl)-N-hydroxyacrylamide]",≤ 100 nM,–
"O=C(/C=C/c1ccc2c(c1)C(=O)CC1(CN(Cc3ccccc3)C1)O2)NO [Example 31, (E)-3-[1′-Benzyl-4-oxo-spiro(chromane-2,3′-azetidine)-6-yl]-N-hydroxy-acrylamide]",≤ 100 nM,–
"O=C(/C=C/c1ccc2c(c1)C(=O)NC1(CCCN(Cc3ccccc3)C1)O2)NO (racemic) [Example 40, (±)-(E)-3-{1′-Benzyl-3,4-dihydro-4-oxo-spiro[2H-(1,3)-benzoxazine-2,3′-piperidin]-6-yl}-N-hydroxy-acrylamide]",≤ 100 nM,–
"Cn1cc(CN2CCC3(CC(=O)c4cc(/C=C/C(=O)NO)ccc4O3)C2)c2ccccc21 (racemic) [Example 10, (±)-(E)-3-[1′(1-Methyl-1H-indol-3-ylmethyl)-4-oxo-spiro(chromane-2,3′-pyrrolidine)-6-yl]-N-hydroxy-acrylamide]",≤ 100 nM,–
"O=C(/C=C/c1ccc2c(c1)C(=O)CC1(CCCN(Cc3ccccc3)C1)O2)NO (single isomer, unassigned; (-)) [Example 17, (−)-(E)-3-[1′-Benzyl-4-oxo-spiro(chromane-2,3′-piperidine)-6-yl]-N-hydroxy-acrylamide]",≤ 100 nM,–
"O=C(/C=C/c1ccc2c(c1)C(=O)CC1(CCCN(C3CCCC3)C1)O2)NO (racemic) [Example 50, (±)-(E)-3-[1′-Cyclopentyl-4-oxo-spiro(chromane-2,3′-piperidine)-6-yl]-N-hydroxy-acrylamide]",≤ 100 nM,–
"O=C(/C=C/c1ccc2c(c1)C(=O)CC1(CCCN(Cc3ccccc3)C1)O2)NO (single isomer, unassigned; (+)) [Example 18, (+)-(E)-3-[1′-Benzyl-4-oxo-spiro(chromane-2,3′-piperidine)-6-yl]-N-hydroxy-acrylamide]",100 to 1000 nM,–
"O=C(/C=C/c1ccc2c(c1)C(=O)CC1(CCN(CCc3ccccc3)C1)O2)NO (racemic) [Example 9, (±)-(E)-3-[1′-(2-Phenyl-ethyl)-4-oxo-spiro(chromane-2,3′-pyrrolidine)-6-yl]-N-hydroxy-acrylamide]",≤ 100 nM,–
"O=C(/C=C/c1ccc2c(c1)C(=O)CC1(CN(C(=O)c3ccccc3)C1)O2)NO [Example 37, (E)-3-[1′-Benzoyl-4-oxo-spiro(chromane-2,3′-azetidine)-6-yl]-N-hydroxy-acrylamide]",≤ 100 nM,–
"O=C(/C=C/c1ccc2c(c1)C(=O)CC1(CCCN(CCc3ccccc3)C1)O2)NO (racemic) [Example 20, (±)-(E)-3-[1′-(2-Phenyl-ethyl)-4-oxo-spiro(chromane-2,3′-piperidine)-6-yl]-N-hydroxy-acrylamide]",≤ 100 nM,–
"O=C(/C=C/c1ccc2c(c1)C(=O)CC1(CCCN(CCc3ccccc3)CC1)O2)NO (racemic) [Example 28, (±)-(E)-3-[1′(2-Phenyl-ethyl)-4-oxo-spiro(chromane-2,4′-azepane)-6-yl]-N-hydroxy-acrylamide]",≤ 100 nM,–
"O=C(/C=C/c1ccc2c(c1)C(=O)NC1(CCCN(CCc3ccccc3)C1)O2)NO (racemic) [Example 43, (±)-(E)-3-{1′-(2-Phenyl-ethyl)-3,4-dihydro-4-oxo-spiro[2H-(1,3)-benzoxazine-2,3′-piperidin]-6-yl}-N-hydroxy-acrylamide]",≤ 100 nM,–
"O=C(/C=C/c1ccc2c(c1)C(=O)CC1(CCCN(Cc3ccccc3)CC1)O2)NO (racemic) [Example 23, (±)-(E)-3-[1′-Benzyl-4-oxo-spiro(chromane-2,4′-azepane)-6-yl]-N-hydroxy-acrylamide]",≤ 100 nM,–

# Reference: patent US8980877B2, “Spirocyclic derivatives as histone deacetylase inhibitors” (DAC S.R.L., priority 2008, dated 2015)
